The clearance is the rate of elimination divided by the concentration.

The series in a line: IV clearance, 1 mg/kg IV, rat. Format: in vivo. The conditions noted are these: for in vivo/in vitro correction factor: microsomal CLh divided by IV CL; for clearance: plasma, 1 mg/kg IV. As to the method: In Table 1, the predicted human IV clearance values were calculated from compound concentration-versus-time data in plasma collected from pre-clinical species (mouse, rat, dog and monkey) following 1 mg/kg intravenous (IV) doses. Concentrations of compound in plasma were measured by LC-MS (liquid chromatography-mass spectrometry). AUCinf values (Area under the plasma concentration-time curve for a dosing interval from time 0 extrapolated to infinity) for individual Cp/t curves (concentration of the drug in plasma at any time t) were determined using linear-trapezoidal integration and first order extrapolation from terminal points of the Cp/t curves, and clearance (CL) was calculated using Dose/AUCinf.
Each of Compound 1, Compound 2, and Compound 3 was formulated by adding the compound (dry) to 20% Trappsol® (hydroxypropyl Beta cyclodextrin; CDT, Inc.) (aq) pH 5.0 and vortexing until a homogeneous suspension (PO) or solution (IV) was achieved.
For intravenous dosing, animals were anesthetized with 3% isoflurane, balanced O2. 1 mg/kg of Compound 1, Compound 2, and Compound 3 was administered at a dose volume of 1 mL/kg to the lateral tail vein. Blood was drawn from the opposite lateral tail vein while the animal was under anesthesia (3% isoflurane balanced with O2, 0.2 mL/timepoint) into NaEDTA tubes (1.5% v/v) at the following time points: 1, 5, 15, 30 minutes, and 1, 2, 4, 8 and 24 hours, and mixed thoroughly.
A single 12-point calibration curve was prepared by first serially diluting (3-fold) a 40-μg/mL stock solution of Compound 1, Compound 2, and Compound 3 in DMSO to provide standard solutions. Plasma (20 μL) was then added to the extraction plate, and 2.5 μL of each standard solution was added to the naïve plasma. A stock solution of an internal standard (10.0 μL of 2.5 μg/mL in acetonitrile) subsequently was added to each standard and sample solution. Proteinaceous material was precipitated from 20 μL of plasma with the addition of 317.5 μL of acetonitrile for a total volume of 350 μL. Samples were vortex-mixed for 5 minutes and spun in an Allegra X-12R centrifuge (Beckman Coulter, Fullerton, Calif.) for 15 minutes at approximately 1,500×g at 4° C. A 100-μL aliquot of each supernatant was transferred via a 550 μL Personal Pipettor (Apricot Designs, Monrovia, Calif.) to 96-well plates and diluted 1:1 with HPLC grade water. The resulting plates were sealed with plate mats and the amount of Compound 1n the plasma was analyzed by LC-MS/MS.
The LC-MS/MS system was comprised of an HTC-PAL autosampler (Leap Technologies, Inc., Carrboro, N.C.), an HP1100 HPLC (Agilent Technologies Inc., Santa Clara, Calif.), and an API4000 triple quadrupole mass spectrometer (Applied Biosystems, Foster City, Calif.). Chromatographic retention of the analyte and internal standard was achieved using a Phenomenex® Synergi 4μ Hydro-RP 80A column (2.1×30 mm, 4 μm particle size; Phenomenex, Torrance, Calif.) in conjunction with gradient conditions using mobile phases A (10 mM ammonium acetate in aqueous 0.1% formic acid and 1% isopropyl alcohol) and B (10 mM ammonium acetate in 89.9% acetonitrile, 10% methanol, 0.1% formic acid). The total run time, including re-equilibration time, for a single injection was 3.5 minutes and the flow rate was 0.8 mL/minute. Solvent B was increased from 5 to 95% in 1.0 minute, held at 95% for 1.0 minute, and then decreased to 5% in 0.1 minute.
The total run time, including re-equilibration time, for a single injection was 3.5 minutes and the flow rate was 0.8 mL/min. Solvent B was increased from 5 to 95% in 1.0 minutes, held at 95% for 1.0 minute, and then decreased to 5% in 0.1 minute. Mass spectrometric detection of the analytes was accomplished using ESI+ ionization mode. Ion current was optimized during infusion of a stock solution of Compound 1, Compound 2, and Compound 3. Analyte responses were measured by multiple reaction monitoring (MRM) of transitions unique to each compound. […]

On to `COCCN1C[C@@H](NC(=O)Nc2c(C)c(-c3cnc(C)nc3)nn2-c2ccccc2)[C@H](c2cccc(F)c2)C1` [Compound 1, 1-((3S,4R)-4-(3-fluorophenyl)-1-(2-methoxyethyl)pyrrolidin-3-yl)-3-(4-methyl-3-(2-methylpyrimidin-5-yl)-1-phenyl-1H-pyrazol-5-yl)urea], for which the “in vivo/in vitro correction factor” value was 1.47 and the clearance was 0.9 L/h/kg.
For `COCCN1C[C@@H](NC(=O)Nc2c(C)c(-c3cnc(C)nc3)nn2-c2ccccc2)[C@H](c2ccc(F)c(F)c2)C1` [Compound 2, 1-((3S,4R)-4-(3,4-difluorophenyl)-1-(2-methoxyethyl)pyrrolidin-3-yl)-3-(4-methyl-3-(2-methylpyrimidin-5-yl)-1-phenyl-1H-pyrazol-5-yl)urea], in that order: 0.76 and 1.74 L/h/kg.
The like results for `COCCN1C[C@@H](NC(=O)Nc2c(C)c(-c3cnn(C)c3)nn2-c2ccccc2)[C@H](c2ccc(F)cc2)C1` [Compound 3, 1-(1′,4-dimethyl-1-phenyl-1H,1′H-[3,4′-bipyrazol]-5-yl)-3-((3S,4R)-4-(4-fluorophenyl)-1-(2-methoxyethyl)pyrrolidin-3-yl)urea] were, in that order, 0.88 and 1.56 L/h/kg.

Values taken from patent US10835533B2, “1 -((3S,4R)-4-(3-fluorophenyl)-1-(2-methoxyethyl)pyrrolidin-3-yl)-3-(4-methyl-3-(2-methylpyrimidin-5-yl)-1-phenyl-1H-pyrazol-5-yl)urea as a TrkA kinase inhibitor” (Array BioPharma Inc., priority 2014, dated 2020).
